Assay results reported in US20190055576A1, “USE OF HERBICIDE-TOLERANT PROTEIN” (BEIJING DABEINONG TECHNOLOGY GROUP CO., LTD., priority 2016, published 2019).

Test system: transgenic maize plants (Zm cytoplasmic/chloroplastic ALT-1-02, ALT-2-02, ALT-3-02)
Test: Sulfometuron-methyl tolerance of transgenic maize plants, damage degree by plant growth status
Format: in vivo
Settings: 120 g ai/ha; for Average damage % 3DAT / Average damage % 7DAT / Average damage % 14DAT / Average damage % 21DAT: 4-fold field concentration; for Average damage % 3DAT: 3 days after spraying; for Average damage % 7DAT: 7 days after spraying; for Average damage % 14DAT: 14 days after spraying; for Average damage % 21DAT: 21 days after spraying
Description: The herbicide tolerance effects of Zm cytoplasmic ALT-1-02 maize plants, Zm chloroplastic ALT-1-02 maize plants, Zm cytoplasmic ALT-2-02 maize plants, Zm chloroplastic ALT-2-02 maize plants, Zm cytoplasmic ALT-3-02 maize plants, Zm chloroplastic ALT-3-02 maize plants and wild-type maize plants on Sulfometuron-methyl were detected (at V3-V4 stage), respectively.
Zm cytoplasmic ALT-1-02 maize plants, Zm chloroplastic ALT-1-02 maize plants, Zm cytoplasmic ALT-2-02 maize plants, Zm chloroplastic ALT-2-02 maize plants, Zm cytoplasmic ALT-3-02 maize plants, Zm chloroplastic ALT-3-02 maize plants and wild-type maize plants were respectively taken and sprayed with Sulfometuron-methyl (120 g ai/ha, 4-fold field concentration) and a blank solvent (water). The damage degree caused by the herbicide was measured for each plant according to the plant growth status 3 days after spraying (3 DAT), 7 days after spraying (7 DAT), 14 days after spraying (14 DAT) and 21 days after spraying (21 DAT), respectively: considering a growth status equivalent to that of the untreated plants as having a damage degree of 0%; considering conditions of leaves being partially chlorotic and yellow but substantially not affecting the plant normal growth as having a damage degree of 50%; and considering the whole plant being purple and dying as having a damage degree of 100%. There were 2 strains in Zm cytoplasmic ALT-1-02 maize plants in total (S13 and S14), 2 strains in Zm chloroplastic ALT-1-02 maize plants in total (S15 and S16), 2 strains in Zm cytoplasmic ALT-2-02 maize plants in total (S17 and S18), 2 strains in Zm chloroplastic ALT-2-02 maize plants in total (S19 and S20), 2 strains in Zm cytoplasmic ALT-3-02 maize plants in total (S21 and S22), 2 strains in Zm chloroplastic ALT-3-02 maize plants in total (S23 and S24), and 1 strain in wild-type maize plants (CK2) in total; and 10-15 plants were selected from each strain and tested.

[1] = strain S13 (Zm cytoplasmic ALT-1-02 maize)
[2] = strain S14 (Zm cytoplasmic ALT-1-02 maize)
[3] = strain S15 (Zm chloroplastic ALT-1-02 maize)
[4] = strain S16 (Zm chloroplastic ALT-1-02 maize)
[5] = strain S17 (Zm cytoplasmic ALT-2-02 maize)
[6] = strain S18 (Zm cytoplasmic ALT-2-02 maize)
[7] = strain S19 (Zm chloroplastic ALT-2-02 maize)
[8] = strain S20 (Zm chloroplastic ALT-2-02 maize)
[9] = strain S21 (Zm cytoplasmic ALT-3-02 maize)
[10] = strain S22 (Zm cytoplasmic ALT-3-02 maize)
[11] = strain S23 (Zm chloroplastic ALT-3-02 maize)
[12] = strain S24 (Zm chloroplastic ALT-3-02 maize)

SMILES: COC(=O)c1ccccc1S(=O)(=O)NC(=O)Nc1nc(C)cc(C)n1 [Sulfometuron-methyl, 2-(4,6-dimethylpyrimidine-2-amino-formamido-sulfonyl) methyl benzoate]
- Average damage % 3DAT [1]: 6%
- Average damage % 7DAT [1]: 0%
- Average damage % 14DAT [1]: 0%
- Average damage % 21DAT [1]: 0%
- Average damage % 3DAT [2]: 7%
- Average damage % 7DAT [2]: 0%
- Average damage % 14DAT [2]: 0%
- Average damage % 21DAT [2]: 0%
- Average damage % 3DAT [3]: 0%
- Average damage % 7DAT [3]: 0%
- Average damage % 14DAT [3]: 0%
- Average damage % 21DAT [3]: 0%
- Average damage % 3DAT [4]: 0%
- Average damage % 7DAT [4]: 0%
- Average damage % 14DAT [4]: 0%
- Average damage % 21DAT [4]: 0%
- Average damage % 3DAT [5]: 6%
- Average damage % 7DAT [5]: 0%
- Average damage % 14DAT [5]: 0%
- Average damage % 21DAT [5]: 0%
- Average damage % 3DAT [6]: 5%
- Average damage % 7DAT [6]: 0%
- Average damage % 14DAT [6]: 0%
- Average damage % 21DAT [6]: 0%
- Average damage % 3DAT [7]: 0%
- Average damage % 7DAT [7]: 0%
- Average damage % 14DAT [7]: 0%
- Average damage % 21DAT [7]: 0%
- Average damage % 3DAT [8]: 0%
- Average damage % 7DAT [8]: 0%
- Average damage % 14DAT [8]: 0%
- Average damage % 21DAT [8]: 0%
- Average damage % 3DAT [9]: 5%
- Average damage % 7DAT [9]: 0%
- Average damage % 14DAT [9]: 0%
- Average damage % 21DAT [9]: 0%
- Average damage % 3DAT [10]: 5%
- Average damage % 7DAT [10]: 0%
- Average damage % 14DAT [10]: 0%
- Average damage % 21DAT [10]: 0%
- Average damage % 3DAT [11]: 0%
- Average damage % 7DAT [11]: 0%
- Average damage % 14DAT [11]: 0%
- Average damage % 21DAT [11]: 0%
- Average damage % 3DAT [12]: 0%
- Average damage % 7DAT [12]: 0%
- Average damage % 14DAT [12]: 0%
- Average damage % 21DAT [12]: 0%
- herbicide tolerance conferred by the thifensulfuron hydrolase (ALT-1, ALT-2 and ALT-3) (transgenic maize plants): conferred a high level of Sulfometuron-methyl herbicide tolerance
